Tested on: Crude diglycosidase
Experiment: Examination of temperature in the conversion into isoflavone aglycons by diglycosidase using soybean materials
Assay type: biochemical, Penicillium multicolor IAM7153
Set-up: Decomposition efficiency of glycitin family in roasted soy flour / Decomposition efficiency of daidzin family in roasted soy flour / Decomposition efficiency of genistin family in soymilk / Decomposition efficiency of daidzin family in soymilk / Decomposition efficiency of glycitin family in defatted soybean / Decomposition efficiency of daidzin family in defatted soybean: concentration or dose not given beside the values
Summary of the method: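 Soybean materials (50 mg) suspended in 20 mM acetate buffer pH 4.0 reacted with crude diglycosidase diluted to 1.88 AU/mL at 80, 65, 55, 45, 37 or 30° C. Reactions stopped with ethanol at 0, 1, 3 and 6 h; isoflavone glycosides and aglycons in supernatant detected by HPLC.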

[1] = 30° C., heat treatment of enzyme no, reaction time 0 h
[2] = 30° C., heat treatment of enzyme no, reaction time 1 h
[3] = 30° C., heat treatment of enzyme no, reaction time 3 h
[4] = 30° C., heat treatment of enzyme no, reaction time 6 h
[5] = 30° C., heat treatment of enzyme yes, reaction time 6 h
[6] = 45° C., heat treatment of enzyme no, reaction time 0 h
[7] = 45° C., heat treatment of enzyme no, reaction time 1 h
[8] = 45° C., heat treatment of enzyme no, reaction time 3 h
[9] = 45° C., heat treatment of enzyme no, reaction time 6 h
[10] = 45° C., heat treatment of enzyme yes, reaction time 6 h
[11] = 45 °C, heat treatment of enzyme: no, 0 h
[12] = 45 °C, heat treatment of enzyme: no, 1 h
[13] = 45 °C, heat treatment of enzyme: no, 3 h
[14] = 45 °C, heat treatment of enzyme: no, 6 h
[15] = 45 °C, heat treatment of enzyme: yes, 6 h
[16] = 55° C., heat treatment of enzyme no, reaction time 0 h
[17] = 55° C., heat treatment of enzyme no, reaction time 1 h
[18] = 55° C., heat treatment of enzyme no, reaction time 3 h
[19] = 55° C., heat treatment of enzyme no, reaction time 6 h
[20] = 55° C., heat treatment of enzyme yes, reaction time 6 h
[21] = 55 °C, heat treatment of enzyme: no, 0 h
[22] = 55 °C, heat treatment of enzyme: no, 1 h
[23] = 55 °C, heat treatment of enzyme: no, 3 h
[24] = 55 °C, heat treatment of enzyme: no, 6 h
[25] = 55 °C, heat treatment of enzyme: yes, 6 h
[26] = 65° C., heat treatment of enzyme no, reaction time 0 h
[27] = 65° C., heat treatment of enzyme no, reaction time 1 h
[28] = 65° C., heat treatment of enzyme no, reaction time 3 h
[29] = 65° C., heat treatment of enzyme no, reaction time 6 h
[30] = 65° C., heat treatment of enzyme yes, reaction time 6 h
[31] = 65 °C, heat treatment of enzyme: no, 0 h
[32] = 65 °C, heat treatment of enzyme: no, 1 h
[33] = 65 °C, heat treatment of enzyme: no, 3 h
[34] = 65 °C, heat treatment of enzyme: no, 6 h
[35] = 65 °C, heat treatment of enzyme: yes, 6 h
[36] = 80° C., heat treatment of enzyme no, reaction time 0 h
[37] = 80° C., heat treatment of enzyme no, reaction time 1 h
[38] = 80° C., heat treatment of enzyme no, reaction time 3 h
[39] = 80° C., heat treatment of enzyme no, reaction time 6 h
[40] = 80° C., heat treatment of enzyme yes, reaction time 6 h
[41] = 80 °C, heat treatment of enzyme: no, 0 h
[42] = 80 °C, heat treatment of enzyme: no, 1 h
[43] = 80 °C, heat treatment of enzyme: no, 3 h
[44] = 80 °C, heat treatment of enzyme: no, 6 h
[45] = 80 °C, heat treatment of enzyme: yes, 6 h

O=C(O)CC(=O)OC[C@H]1O[C@@H](Oc2ccc3c(=O)c(-c4ccc(O)cc4)coc3c2)[C@H](O)[C@@H](O)[C@@H]1O [malonyldaidzin, 6″-O-malonyldaidzin]
Decomposition efficiency of daidzin family in concentrated soybean protein [1]: not detected
Decomposition efficiency of daidzin family in defatted soybean [1]: 43.3%
Decomposition efficiency of daidzin family in concentrated soybean protein [2]: not detected
Decomposition efficiency of daidzin family in defatted soybean [2]: 46.6%
Decomposition efficiency of daidzin family in concentrated soybean protein [3]: not detected
Decomposition efficiency of daidzin family in defatted soybean [3]: 45.2%
Decomposition efficiency of daidzin family in concentrated soybean protein [4]: not detected
Decomposition efficiency of daidzin family in defatted soybean [4]: 45.1%
Decomposition efficiency of daidzin family in concentrated soybean protein [5]: not detected
Decomposition efficiency of daidzin family in defatted soybean [5]: 45.4%
Decomposition efficiency of daidzin family in soymilk (30 °C, heat treatment of enzyme: no, 0 h): 56.8%
Decomposition efficiency of daidzin family in soymilk (30 °C, heat treatment of enzyme: no, 1 h): 58.2%
Decomposition efficiency of daidzin family in soymilk (30 °C, heat treatment of enzyme: no, 3 h): 52.8%
Decomposition efficiency of daidzin family in soymilk (30 °C, heat treatment of enzyme: no, 6 h): 46.2%
Decomposition efficiency of daidzin family in soymilk (30 °C, heat treatment of enzyme: yes, 6 h): 56.1%
Decomposition efficiency of daidzin family in roasted soy flour (35 °C, heat treatment of enzyme: no, 0 h): not detected
Decomposition efficiency of daidzin family in roasted soy flour (35 °C, heat treatment of enzyme: no, 1 h): not detected
Decomposition efficiency of daidzin family in roasted soy flour (35 °C, heat treatment of enzyme: no, 3 h): not detected
Decomposition efficiency of daidzin family in roasted soy flour (35 °C, heat treatment of enzyme: no, 6 h): not detected
Decomposition efficiency of daidzin family in roasted soy flour (35 °C, heat treatment of enzyme: yes, 6 h): not detected
Decomposition efficiency of daidzin family in concentrated soybean protein [6]: not detected
Decomposition efficiency of daidzin family in defatted soybean [6]: 43.3%
Decomposition efficiency of daidzin family in concentrated soybean protein [7]: not detected
Decomposition efficiency of daidzin family in defatted soybean [7]: 45.5%
Decomposition efficiency of daidzin family in concentrated soybean protein [8]: not detected
Decomposition efficiency of daidzin family in defatted soybean [8]: 43.7%
Decomposition efficiency of daidzin family in concentrated soybean protein [9]: not detected
Decomposition efficiency of daidzin family in defatted soybean [9]: 41.7%
Decomposition efficiency of daidzin family in concentrated soybean protein [10]: not detected
Decomposition efficiency of daidzin family in defatted soybean [10]: 44.3%
Decomposition efficiency of daidzin family in roasted soy flour [11]: not detected
Decomposition efficiency of daidzin family in soymilk [11]: 57.2%
Decomposition efficiency of daidzin family in roasted soy flour [12]: not detected
Decomposition efficiency of daidzin family in soymilk [12]: 50.2%
Decomposition efficiency of daidzin family in roasted soy flour [13]: not detected
Decomposition efficiency of daidzin family in soymilk [13]: 41.1%
Decomposition efficiency of daidzin family in roasted soy flour [14]: not detected
Decomposition efficiency of daidzin family in soymilk [14]: 30.2%
Decomposition efficiency of daidzin family in roasted soy flour [15]: not detected
Decomposition efficiency of daidzin family in soymilk [15]: 55.8%
Decomposition efficiency of daidzin family in concentrated soybean protein [16]: not detected
Decomposition efficiency of daidzin family in defatted soybean [16]: 43.3%
Decomposition efficiency of daidzin family in concentrated soybean protein [17]: not detected
Decomposition efficiency of daidzin family in defatted soybean [17]: 45.0%
Decomposition efficiency of daidzin family in concentrated soybean protein [18]: not detected
Decomposition efficiency of daidzin family in defatted soybean [18]: 42.7%
Decomposition efficiency of daidzin family in concentrated soybean protein [19]: not detected
Decomposition efficiency of daidzin family in defatted soybean [19]: 40.3%
Decomposition efficiency of daidzin family in concentrated soybean protein [20]: not detected
Decomposition efficiency of daidzin family in defatted soybean [20]: 44.1%
Decomposition efficiency of daidzin family in roasted soy flour [21]: not detected
Decomposition efficiency of daidzin family in soymilk [21]: 57.3%
Decomposition efficiency of daidzin family in roasted soy flour [22]: not detected
Decomposition efficiency of daidzin family in soymilk [22]: 50.9%
Decomposition efficiency of daidzin family in roasted soy flour [23]: not detected
Decomposition efficiency of daidzin family in soymilk [23]: 41.1%
Decomposition efficiency of daidzin family in roasted soy flour [24]: not detected
Decomposition efficiency of daidzin family in soymilk [24]: 31.1%
Decomposition efficiency of daidzin family in roasted soy flour [25]: not detected
Decomposition efficiency of daidzin family in soymilk [25]: 50.8%
Decomposition efficiency of daidzin family in concentrated soybean protein [26]: not detected
Decomposition efficiency of daidzin family in defatted soybean [26]: 43.3%
Decomposition efficiency of daidzin family in concentrated soybean protein [27]: not detected
Decomposition efficiency of daidzin family in defatted soybean [27]: 44.7%
Decomposition efficiency of daidzin family in concentrated soybean protein [28]: not detected
Decomposition efficiency of daidzin family in defatted soybean [28]: 41.6%
Decomposition efficiency of daidzin family in concentrated soybean protein [29]: not detected
Decomposition efficiency of daidzin family in defatted soybean [29]: 37.3%
Decomposition efficiency of daidzin family in concentrated soybean protein [30]: not detected
Decomposition efficiency of daidzin family in defatted soybean [30]: 35.2%
Decomposition efficiency of daidzin family in roasted soy flour [31]: not detected
Decomposition efficiency of daidzin family in soymilk [31]: 56.8%
Decomposition efficiency of daidzin family in roasted soy flour [32]: not detected
Decomposition efficiency of daidzin family in soymilk [32]: 51.7%
Decomposition efficiency of daidzin family in roasted soy flour [33]: not detected
Decomposition efficiency of daidzin family in soymilk [33]: 43.9%
Decomposition efficiency of daidzin family in roasted soy flour [34]: not detected
Decomposition efficiency of daidzin family in soymilk [34]: 35.3%
Decomposition efficiency of daidzin family in roasted soy flour [35]: not detected
Decomposition efficiency of daidzin family in soymilk [35]: 42.4%
Decomposition efficiency of daidzin family in concentrated soybean protein [36]: not detected
Decomposition efficiency of daidzin family in defatted soybean [36]: 43.3%
Decomposition efficiency of daidzin family in concentrated soybean protein [37]: not detected
Decomposition efficiency of daidzin family in defatted soybean [37]: 39.8%
Decomposition efficiency of daidzin family in concentrated soybean protein [38]: not detected
Decomposition efficiency of daidzin family in defatted soybean [38]: 28.8%
Decomposition efficiency of daidzin family in concentrated soybean protein [39]: not detected
Decomposition efficiency of daidzin family in defatted soybean [39]: 17.8%
Decomposition efficiency of daidzin family in concentrated soybean protein [40]: not detected
Decomposition efficiency of daidzin family in defatted soybean [40]: 17.4%
Decomposition efficiency of daidzin family in roasted soy flour [41]: not detected
Decomposition efficiency of daidzin family in soymilk [41]: 57.2%
Decomposition efficiency of daidzin family in roasted soy flour [42]: not detected
Decomposition efficiency of daidzin family in soymilk [42]: 50.8%
Decomposition efficiency of daidzin family in roasted soy flour [43]: not detected
Decomposition efficiency of daidzin family in soymilk [43]: 36.4%
Decomposition efficiency of daidzin family in roasted soy flour [44]: not detected
Decomposition efficiency of daidzin family in soymilk [44]: 23.0%
Decomposition efficiency of daidzin family in roasted soy flour [45]: not detected
Decomposition efficiency of daidzin family in soymilk [45]: 21.8%

From patent US7118895B2, “Process for producing aglycon by using diglycosidase and flavor-improved food containing the aglycon and converting agent to be used in the process” (Amano Enzyme Inc., priority 2000, dated 2006)
